Experiments:
Test in all cases: Kinase selectivity
Assay type in all cases: biochemical
Syk (h) = Syk (h) (Homo sapiens, UniProt P43405)
From the text: (§1) Supplement mmc1.docx, table 1 | column: IC50 (μM)

ROCK-1 (h) = ROCK-1 (h) (Homo sapiens, UniProt Q13464)
From the text: as §1

PKA (h) = PKA (h) (Homo sapiens, UniProt P17612)
From the text: as §1

Lck (h) = Lck (h) (Homo sapiens, UniProt P06239)
From the text: as §1

p70S6K (h) = p70S6K (h) (Homo sapiens, UniProt P23443)
From the text: as §1

GSK3β (h) = GSK3β (h) (Homo sapiens, UniProt P49841)
Chain of GSK3β (h) (P49841 whole entry): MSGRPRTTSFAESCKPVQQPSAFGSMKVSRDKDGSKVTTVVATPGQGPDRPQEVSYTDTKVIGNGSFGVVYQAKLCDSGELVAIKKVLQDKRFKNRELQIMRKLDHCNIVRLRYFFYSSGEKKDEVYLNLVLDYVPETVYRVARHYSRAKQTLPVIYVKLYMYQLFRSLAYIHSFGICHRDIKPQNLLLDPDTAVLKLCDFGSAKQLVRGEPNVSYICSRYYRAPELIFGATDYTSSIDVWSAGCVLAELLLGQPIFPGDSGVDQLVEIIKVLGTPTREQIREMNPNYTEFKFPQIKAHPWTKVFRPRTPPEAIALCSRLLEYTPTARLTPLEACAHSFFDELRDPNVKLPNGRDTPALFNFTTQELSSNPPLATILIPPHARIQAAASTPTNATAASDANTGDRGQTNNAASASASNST
From the text: as §1

Measured: IC50

Chain of p70S6K (h) (P23443 whole entry): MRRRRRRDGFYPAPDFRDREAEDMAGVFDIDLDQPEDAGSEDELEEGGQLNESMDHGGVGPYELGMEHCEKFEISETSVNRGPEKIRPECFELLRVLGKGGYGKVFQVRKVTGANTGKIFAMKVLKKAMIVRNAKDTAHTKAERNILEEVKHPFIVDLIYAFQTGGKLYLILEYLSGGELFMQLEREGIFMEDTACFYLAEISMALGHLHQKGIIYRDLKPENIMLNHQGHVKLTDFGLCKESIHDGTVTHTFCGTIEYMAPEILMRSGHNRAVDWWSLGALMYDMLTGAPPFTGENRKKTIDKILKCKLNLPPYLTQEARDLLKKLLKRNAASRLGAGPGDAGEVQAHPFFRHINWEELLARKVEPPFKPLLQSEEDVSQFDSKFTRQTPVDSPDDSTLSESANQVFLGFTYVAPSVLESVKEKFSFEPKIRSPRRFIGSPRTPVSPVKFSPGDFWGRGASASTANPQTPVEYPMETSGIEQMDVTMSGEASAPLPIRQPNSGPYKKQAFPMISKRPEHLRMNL
Chain of Lck (h) (P06239 whole entry): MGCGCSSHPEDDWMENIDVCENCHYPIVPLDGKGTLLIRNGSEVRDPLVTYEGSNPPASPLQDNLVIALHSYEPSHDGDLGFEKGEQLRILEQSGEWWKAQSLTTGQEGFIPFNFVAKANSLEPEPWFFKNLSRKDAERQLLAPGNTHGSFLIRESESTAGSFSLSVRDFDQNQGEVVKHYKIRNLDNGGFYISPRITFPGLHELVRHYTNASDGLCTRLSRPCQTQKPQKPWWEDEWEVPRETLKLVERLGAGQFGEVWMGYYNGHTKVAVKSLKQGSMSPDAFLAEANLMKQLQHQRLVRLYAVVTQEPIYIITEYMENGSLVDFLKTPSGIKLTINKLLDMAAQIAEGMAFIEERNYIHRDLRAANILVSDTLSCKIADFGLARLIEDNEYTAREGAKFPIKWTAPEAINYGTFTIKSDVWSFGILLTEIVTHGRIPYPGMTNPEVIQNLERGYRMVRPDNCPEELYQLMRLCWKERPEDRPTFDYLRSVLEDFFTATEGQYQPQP
Chain of ROCK-1 (h) (Q13464 whole entry): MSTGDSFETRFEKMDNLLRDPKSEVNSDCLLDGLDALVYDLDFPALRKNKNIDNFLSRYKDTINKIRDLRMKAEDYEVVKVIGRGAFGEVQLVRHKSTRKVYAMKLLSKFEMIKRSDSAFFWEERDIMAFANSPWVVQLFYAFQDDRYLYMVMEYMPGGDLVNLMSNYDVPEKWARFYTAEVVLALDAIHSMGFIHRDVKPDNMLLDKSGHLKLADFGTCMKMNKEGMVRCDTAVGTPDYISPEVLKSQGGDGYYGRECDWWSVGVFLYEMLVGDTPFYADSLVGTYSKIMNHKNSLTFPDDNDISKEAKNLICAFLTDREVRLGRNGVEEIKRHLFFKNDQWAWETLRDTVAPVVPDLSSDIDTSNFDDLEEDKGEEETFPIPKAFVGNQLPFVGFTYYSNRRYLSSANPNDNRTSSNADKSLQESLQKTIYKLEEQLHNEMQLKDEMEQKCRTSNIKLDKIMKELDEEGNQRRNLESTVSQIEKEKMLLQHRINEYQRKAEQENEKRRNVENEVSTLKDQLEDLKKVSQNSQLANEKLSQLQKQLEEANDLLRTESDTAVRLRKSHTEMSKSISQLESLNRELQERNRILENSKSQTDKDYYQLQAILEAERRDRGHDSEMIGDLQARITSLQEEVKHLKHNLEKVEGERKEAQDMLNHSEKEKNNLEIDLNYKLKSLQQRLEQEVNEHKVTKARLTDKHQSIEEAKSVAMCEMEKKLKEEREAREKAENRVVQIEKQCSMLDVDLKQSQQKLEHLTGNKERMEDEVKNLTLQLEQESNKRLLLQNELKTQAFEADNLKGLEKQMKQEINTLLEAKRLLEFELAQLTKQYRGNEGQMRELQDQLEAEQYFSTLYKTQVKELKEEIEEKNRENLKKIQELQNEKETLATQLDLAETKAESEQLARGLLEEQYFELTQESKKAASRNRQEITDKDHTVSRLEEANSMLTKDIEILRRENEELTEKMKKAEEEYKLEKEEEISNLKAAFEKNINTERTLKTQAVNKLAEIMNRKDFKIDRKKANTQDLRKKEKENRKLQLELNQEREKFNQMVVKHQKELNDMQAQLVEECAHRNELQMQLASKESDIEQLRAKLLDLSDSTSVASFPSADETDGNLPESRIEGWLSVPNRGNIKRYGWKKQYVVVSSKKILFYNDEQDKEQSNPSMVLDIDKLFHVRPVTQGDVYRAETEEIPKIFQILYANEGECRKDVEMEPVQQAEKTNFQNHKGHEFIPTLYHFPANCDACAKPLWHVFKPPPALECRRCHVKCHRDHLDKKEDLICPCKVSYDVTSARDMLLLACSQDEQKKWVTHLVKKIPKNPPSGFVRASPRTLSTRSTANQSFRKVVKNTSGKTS

Nc1nonc1-c1nc2ccccc2n1Cc1ccncc1 [C101248]
> 10 µM: Syk (h) | ROCK-1 (h) | PKA (h) | Lck (h) | p70S6K (h) | GSK3β (h)

From article PMC9841576, “Characterisation of C101248: A novel selective THIK-1 channel inhibitor for the modulation of microglial NLRP3-inflammasome” (Neuropharmacology, 2023)
